Experiments:
[1] = tested on: APP/PS1 transgenic male mice (AD mice); experiment: Morris water maze test in AD mice; assay type: in vivo; conditions: 50 mg/kg daily intragastric, 90 days; for learning and memory abilities of AD mice after administration: Morris water maze
Protocol: Twenty 5-6-month-old APP/PS1 transgenic male mice (AD mice) were selected and divided into a model group and a polysaccharide administration group according to the random number table method. PL402 was administered daily by intragastric administration (50 mg/kg), and 10 non-transgenic mice were used in a negative control group (without administration). After 90 days of consecutive administration, Morris water maze behavior test was used to detect the effect of PL402 on the learning and cognitive functions of APP/PS1 mice.
In this experiment, a classic Morris water maze test procedure was used, which includes a place navigation test and a space exploration test. The duration of the experiment was 7 days in total, and the space exploration test was introduced at Days 4 and 7.
The selection of animals and the “Morris water maze experiment” was performed as described in Example 3, to detect the effect of PL404 on the animal learning and memory abilities.

mouse BV-2 cells = experiment: Expression of inflammatory factors in LPS-stimulated BV-2 cells (QPCR); assay type: cell-based; conditions: LPS 300 ng/ml, compound 10-300 μM, 24 hours
Protocol: Neuroinflammation in the brain of AD is one of the causes of cognitive decline. Microglia are key cells that mediate neuroinflammation. The inventors studied whether PL402 is effective in inhibiting neuroinflammation by detecting the expression of inflammatory factors on mouse BV-2 cells.
BV-2 cells culture and stimulation: BV-2 cells were cultured in DMEM, plated in a 24-well plate and cultured for 24 hours. Then PL402 (0, 10, 30, 100, or 300 μM) and LPS (300 ng/ml) were added, and then incubated for 24 hours. RNA was extracted with Trizol, and the expression of related inflammatory factors was detected by QPCR.

[2] = tested on: neuroblastoma cells SK—N—SH cells; experiment: Total Aβ level in supernatant of SK-N-SH cells (ELISA); assay type: cell-based; conditions: 24 hours
Protocol: Aβ is the main pathogenic protein of AD. The inventors investigated whether PL402 has an effect on inhibiting Aβ production by detecting the level of Aβ in neuroblastoma cells SK—N—SH cells (which can secrete Aβ).
Culture of SK—N—SH and detection of Aβ: SK—N—SH cells were cultured in DMEM, plated in a 24-well plate and cultured for 24 hours. PL402 (0, 10, 30, 100, or 300 μM) was added, and then incubated for 24 hours. The supernatant was collected and the total Aβ protein level was detected by ELISA.

[3] = tested on: human neural progenitor cell (differentiated by humanized iPSC); experiment: EdU incorporation, proliferation of human neural progenitor cells; assay type: cell-based; conditions: dosage 0, 1, 3, 10, 30 or 100 μM, vs untreated control
Protocol: The inventors investigated whether PL404 has the effect on promoting proliferation by detecting the EdU incorporation of a human neural progenitor cell (differentiated by humanized iPSC). The dosage of PL404 was 0, 1, 3, 10, 30, or 100 μM.
The method similar to that in Example 7 was used, except that compound PL404 was replaced by PL405, and by detecting the EdU incorporation of human neural progenitor cells, whether PL405 has the effect on promoting proliferation was investigated.

Row | SMILES | learning and memory abilities of AD mice after administration [1] | escape latency (latency to reach the platform) compared with the model group ([1]; place navigation test, 50 mg/kg) | expression of inflammatory factor IL-1β (mouse BV-2 cells) | expression of inflammatory factor IL-6 (mouse BV-2 cells) | production of Aβ (total Aβ protein level) ([2]; compound 10-300 μM, ELISA of supernatant) | concentration at which the inhibition of Aβ production is most desirable ([2]; tested 0, 10, 30, 100, 300 μM) [µM] | increase of human neural progenitor cell proliferation level compared with the control group [3]
1 | COc1cc(/C=C/C(=O)O[C@@H]2OC(C)[C@H](O[C@@H]3OC(C)[C@H](O)C(O)C3O)C(O)C2O)ccc1O (stereo partly drawn) [PL402] | significantly improved | statistically significant decrease | significantly inhibit | significantly inhibit | significantly inhibit | 100 | 
2 | COc1cc(/C=C/C(=O)OC2C(C)OC(OC3C(C)OC(O)C4OC(C)(C)OC34)C(O)C2O)ccc1O (stereo not drawn) [PL404] | significantly improved |  |  |  |  |  | about 30%
3 | COc1cc(/C=C/C(=O)OC2C(C)OC(OC3C(C)OC(O)C(O)C3O)C(O)C2O)ccc1O (stereo not drawn) [PL405] |  |  |  |  |  |  | about 60%
